Assay results published in patent EP0908457B1, “3-(1,2-benzisothiazol- and isoxazol-5-Y1)-2,4(1H,3H)-pyrimidinedione or thione and 3-(1,2-benzisothiazol- and isoxazol-5-y1)-4(3H)-pyrimidinone or thione herbicidal agents” (BASF AKTIENGESELLSCHAFT, priority 1997, dated 1999).

Experiments:
Sagittaria pygmaea, L. [1] = assay: Postemergence weed control under flooded paddy conditions, SAGPY (Arrowhead (Pygmaea)); type: in vivo; settings: rated three to four weeks after treatment
[2] = tested on: Echinochloa oryzoides (Ard.) Fritsch.; assay: Preemergence weed control under flooded paddy conditions, ECHORC (Watergrass (Calif.)); type: in vivo; settings: preemergence, flooded paddy, rated three to four weeks after treatment; for herbicidal effect rating, ECHORC: meaning of each grade not given here
[3] = tested on: Monochoria vaginalis, Presl.; assay: Preemergence weed control under flooded paddy conditions, MOOVA (Monochoria); type: in vivo; settings: preemergence, flooded paddy, rated three to four weeks after treatment; for herbicidal effect rating, MOOVA: meaning of each grade not given here
[4] = tested on: Oryza sativa, (L.) Tebonnet; assay: Rice tolerance to post-transplant applications under flooded paddy conditions (Example 187), ORYSAT (Rice, Tebonnet); settings: rated three to four weeks after treatment
[5] = tested on: Monochoria vaginalis, Presl.; assay: Postemergence weed control under flooded paddy conditions, MOOVA (Monochoria); type: in vivo; settings: rated three to four weeks after treatment
[6] = tested on: Oryza sativa, (L.) Tebonnet; assay: Rice tolerance to post-transplant applications under flooded paddy conditions (Example 188), ORYSAT (Rice, Tebonnet); settings: rated three to four weeks after treatment
[7] = tested on: Cyperus serotinus, Rottb.; assay: Preemergence weed control under flooded paddy conditions, CYPSE (Flatsedge); type: in vivo; settings: preemergence, rated three to four weeks after treatment; for herbicidal effect rating, CYPSE: meaning of each grade not given here
[8] = tested on: Cyperus serotinus, Rottb.; assay: Postemergence weed control under flooded paddy conditions, CYPSE (Flatsedge); type: in vivo; settings: rated three to four weeks after treatment
[9] = tested on: Echinochloa oryzoides (Ard.) Fritsch.; assay: Postemergence weed control under flooded paddy conditions, ECHORC (Watergrass (Calif.)); type: in vivo; settings: rated three to four weeks after treatment
Cyperus iria [10] = assay: Preemergence weed control under flooded paddy conditions, CYPIR (Rice Flatsedge); type: in vivo; settings: preemergence, flooded paddy, rated three to four weeks after treatment; for herbicidal effect rating, CYPIR: meaning of each grade not given here
Cyperus iria [11] = assay: Postemergence weed control under flooded paddy conditions, CYPIR (Rice Flatsedge); type: in vivo; settings: rated three to four weeks after treatment
Sagittaria pygmaea, L. [12] = assay: Preemergence weed control under flooded paddy conditions, SAGPY (Arrowhead (Pygmaea)); type: in vivo; settings: preemergence, flooded paddy, rated three to four weeks after treatment; for herbicidal effect rating, SAGPY: meaning of each grade not given here

SMILES: COc1cc(C)ccc1-c1nsc2ccc(-n3c(=O)cc(C(F)(F)F)n(C)c3=O)cc12 [Example 7, 3-[3-(2-Methoxy-p-tolyl)-1,2-benzisothiazol-5-yl]-1-methyl-6-(trifluoromethyl)-2,4(1H,3H)-pyrimidinedione]
- herbicidal effect rating, SAGPY (Sagittaria pygmaea, L. [1]; Rate 0.0313 kg/ha): 0.0
- herbicidal effect rating, SAGPY (Sagittaria pygmaea, L. [1]; Rate 0.0625 kg/ha): 2.0
- herbicidal effect rating, SAGPY (Sagittaria pygmaea, L. [1]; Rate 0.1250 kg/ha): 4.0
- herbicidal effect rating, SAGPY (Sagittaria pygmaea, L. [1]; Rate 0.2500 kg/ha): 9.0
- herbicidal effect rating, SAGPY (Sagittaria pygmaea, L. [1]; Rate 0.5000 kg/ha): 9.0
- herbicidal effect rating, ECHORC ([2]; 0.0313 kg/ha): 9.0
- herbicidal effect rating, ECHORC ([2]; 0.0625 kg/ha): 9.0
- herbicidal effect rating, ECHORC ([2]; 0.1250 kg/ha): 9.0
- herbicidal effect rating, ECHORC ([2]; 0.2500 kg/ha): 9.0
- herbicidal effect rating, ECHORC ([2]; 0.5000 kg/ha): 9.0
- herbicidal effect rating, MOOVA ([3]; 0.0313 kg/ha): 9.0
- herbicidal effect rating, MOOVA ([3]; 0.0625 kg/ha): 9.0
- herbicidal effect rating, MOOVA ([3]; 0.1250 kg/ha): 9.0
- herbicidal effect rating, MOOVA ([3]; 0.2500 kg/ha): 9.0
- herbicidal effect rating, MOOVA ([3]; 0.5000 kg/ha): 9.0
- herbicidal effect rating, ORYSAT (rice tolerance) ([4]; 0.0313 kg/ha): 6.0
- herbicidal effect rating, ORYSAT (rice tolerance) ([4]; 0.0625 kg/ha): 8.0
- herbicidal effect rating, ORYSAT (rice tolerance) ([4]; 0.1250 kg/ha): 7.0
- herbicidal effect rating, ORYSAT (rice tolerance) ([4]; 0.2500 kg/ha): 7.0
- herbicidal effect rating, ORYSAT (rice tolerance) ([4]; 0.5000 kg/ha): 9.0
- herbicidal effect rating, MOOVA ([5]; Rate 0.0313 kg/ha): 9.0
- herbicidal effect rating, MOOVA ([5]; Rate 0.0625 kg/ha): 9.0
- herbicidal effect rating, MOOVA ([5]; Rate 0.1250 kg/ha): 9.0
- herbicidal effect rating, MOOVA ([5]; Rate 0.2500 kg/ha): 9.0
- herbicidal effect rating, MOOVA ([5]; Rate 0.5000 kg/ha): 9.0
- herbicidal effect rating, ORYSAT (rice tolerance) ([6]; Rate 0.0313 kg/ha): 7.0
- herbicidal effect rating, ORYSAT (rice tolerance) ([6]; Rate 0.0625 kg/ha): 7.0
- herbicidal effect rating, ORYSAT (rice tolerance) ([6]; Rate 0.1250 kg/ha): 7.0
- herbicidal effect rating, ORYSAT (rice tolerance) ([6]; Rate 0.2500 kg/ha): 7.0
- herbicidal effect rating, ORYSAT (rice tolerance) ([6]; Rate 0.5000 kg/ha): 8.0
- herbicidal effect rating, CYPSE ([7]; 0.0313 kg/ha): 7.0
- herbicidal effect rating, CYPSE ([7]; 0.0625 kg/ha): 7.0
- herbicidal effect rating, CYPSE ([7]; 0.1250 kg/ha): 8.0
- herbicidal effect rating, CYPSE ([7]; 0.2500 kg/ha): 7.0
- herbicidal effect rating, CYPSE ([7]; 0.5000 kg/ha): 9.0
- herbicidal effect rating, CYPSE ([8]; Rate 0.0313 kg/ha): 2.0
- herbicidal effect rating, CYPSE ([8]; Rate 0.0625 kg/ha): 6.0
- herbicidal effect rating, CYPSE ([8]; Rate 0.1250 kg/ha): 9.0
- herbicidal effect rating, CYPSE ([8]; Rate 0.2500 kg/ha): 9.0
- herbicidal effect rating, CYPSE ([8]; Rate 0.5000 kg/ha): 8.0
- herbicidal effect rating, ECHORC ([9]; Rate 0.0313 kg/ha): 9.0
- herbicidal effect rating, ECHORC ([9]; Rate 0.0625 kg/ha): 9.0
- herbicidal effect rating, ECHORC ([9]; Rate 0.1250 kg/ha): 9.0
- herbicidal effect rating, ECHORC ([9]; Rate 0.2500 kg/ha): 9.0
- herbicidal effect rating, ECHORC ([9]; Rate 0.5000 kg/ha): 9.0
- herbicidal effect rating, CYPIR (Cyperus iria [10]; 0.0313 kg/ha): 9.0
- herbicidal effect rating, CYPIR (Cyperus iria [10]; 0.0625 kg/ha): 9.0
- herbicidal effect rating, CYPIR (Cyperus iria [10]; 0.1250 kg/ha): 9.0
- herbicidal effect rating, CYPIR (Cyperus iria [10]; 0.2500 kg/ha): 9.0
- herbicidal effect rating, CYPIR (Cyperus iria [10]; 0.5000 kg/ha): 9.0
- herbicidal effect rating, CYPIR (Cyperus iria [11]; Rate 0.0313 kg/ha): 9.0
- herbicidal effect rating, CYPIR (Cyperus iria [11]; Rate 0.0625 kg/ha): 9.0
- herbicidal effect rating, CYPIR (Cyperus iria [11]; Rate 0.1250 kg/ha): 9.0
- herbicidal effect rating, CYPIR (Cyperus iria [11]; Rate 0.2500 kg/ha): 9.0
- herbicidal effect rating, CYPIR (Cyperus iria [11]; Rate 0.5000 kg/ha): 9.0
- herbicidal effect rating, SAGPY (Sagittaria pygmaea, L. [12]; 0.0313 kg/ha): 6.0
- herbicidal effect rating, SAGPY (Sagittaria pygmaea, L. [12]; 0.0625 kg/ha): 8.0
- herbicidal effect rating, SAGPY (Sagittaria pygmaea, L. [12]; 0.1250 kg/ha): 9.0
- herbicidal effect rating, SAGPY (Sagittaria pygmaea, L. [12]; 0.2500 kg/ha): 9.0
- herbicidal effect rating, SAGPY (Sagittaria pygmaea, L. [12]; 0.5000 kg/ha): 9.0

SMILES: COC(=O)COc1ccc(C)cc1-c1noc2ccc(-n3c(=O)cc(C(F)(F)F)n(C)c3=O)c(Cl)c12 [Example 261, Acetic acid, {{2-{4-chloro-5-[3,6-dihydro-3-methyl-2,6-dioxo-4-(trifluoromethyl)-1(2H)-pyrimidinyl]-1,2-benzisoxazol-3-yl}-p-tolyl}oxy}-, methyl ester]
- herbicidal effect rating, SAGPY (Sagittaria pygmaea, L. [1]; Rate 0.0320 kg/ha): 0.0
- herbicidal effect rating, SAGPY (Sagittaria pygmaea, L. [1]; Rate 0.0620 kg/ha): 0.0
- herbicidal effect rating, SAGPY (Sagittaria pygmaea, L. [1]; Rate 0.1250 kg/ha): 0.0
- herbicidal effect rating, SAGPY (Sagittaria pygmaea, L. [1]; Rate 0.2500 kg/ha): 0.0
- ECHORC herbicidal effect rating ([2]; Rate 0.0320 kg/ha): 2.5
- ECHORC herbicidal effect rating ([2]; Rate 0.0620 kg/ha): 2.0
- ECHORC herbicidal effect rating ([2]; Rate 0.1250 kg/ha): 2.0
- ECHORC herbicidal effect rating ([2]; Rate 0.2500 kg/ha): 0.0
- MOOVA herbicidal effect rating ([3]; Rate 0.0320 kg/ha): 4.5
- MOOVA herbicidal effect rating ([3]; Rate 0.0620 kg/ha): 4.5
- MOOVA herbicidal effect rating ([3]; Rate 0.1250 kg/ha): 6.0
- MOOVA herbicidal effect rating ([3]; Rate 0.2500 kg/ha): 3.0
- ORYSAT herbicidal effect rating ([4]; Rate 0.0320 kg/ha): 0.0
- ORYSAT herbicidal effect rating ([4]; Rate 0.0620 kg/ha): 0.0
- ORYSAT herbicidal effect rating ([4]; Rate 0.1250 kg/ha): 0.0
- ORYSAT herbicidal effect rating ([4]; Rate 0.2500 kg/ha): 0.0
- herbicidal effect rating, MOOVA ([5]; Rate 0.0320 kg/ha): 9.0
- herbicidal effect rating, MOOVA ([5]; Rate 0.0620 kg/ha): 9.0
- herbicidal effect rating, MOOVA ([5]; Rate 0.1250 kg/ha): 9.0
- herbicidal effect rating, MOOVA ([5]; Rate 0.2500 kg/ha): 9.0
- herbicidal effect rating, ORYSAT (rice tolerance) ([6]; Rate 0.0320 kg/ha): 0.0
- herbicidal effect rating, ORYSAT (rice tolerance) ([6]; Rate 0.0620 kg/ha): 0.0
- herbicidal effect rating, ORYSAT (rice tolerance) ([6]; Rate 0.1250 kg/ha): 0.0
- herbicidal effect rating, ORYSAT (rice tolerance) ([6]; Rate 0.2500 kg/ha): 0.0
- CYPSE herbicidal effect rating ([7]; Rate 0.0320 kg/ha): 4.5
- CYPSE herbicidal effect rating ([7]; Rate 0.0620 kg/ha): 4.5
- CYPSE herbicidal effect rating ([7]; Rate 0.1250 kg/ha): 4.5
- CYPSE herbicidal effect rating ([7]; Rate 0.2500 kg/ha): 0.0
- herbicidal effect rating, CYPSE ([8]; Rate 0.0320 kg/ha): 0.0
- herbicidal effect rating, CYPSE ([8]; Rate 0.0620 kg/ha): 0.0
- herbicidal effect rating, CYPSE ([8]; Rate 0.1250 kg/ha): 0.0
- herbicidal effect rating, CYPSE ([8]; Rate 0.2500 kg/ha): 0.0
- herbicidal effect rating, ECHORC ([9]; Rate 0.0320 kg/ha): 0.0
- herbicidal effect rating, ECHORC ([9]; Rate 0.0620 kg/ha): 0.0
- herbicidal effect rating, ECHORC ([9]; Rate 0.1250 kg/ha): 0.0
- herbicidal effect rating, ECHORC ([9]; Rate 0.2500 kg/ha): 0.0
- CYPIR herbicidal effect rating (Cyperus iria [10]; Rate 0.0320 kg/ha): 4.0
- CYPIR herbicidal effect rating (Cyperus iria [10]; Rate 0.0620 kg/ha): 4.5
- CYPIR herbicidal effect rating (Cyperus iria [10]; Rate 0.1250 kg/ha): 5.5
- CYPIR herbicidal effect rating (Cyperus iria [10]; Rate 0.2500 kg/ha): 2.0
- herbicidal effect rating, CYPIR (Cyperus iria [11]; Rate 0.0320 kg/ha): 5.0
- herbicidal effect rating, CYPIR (Cyperus iria [11]; Rate 0.0620 kg/ha): 6.0
- herbicidal effect rating, CYPIR (Cyperus iria [11]; Rate 0.1250 kg/ha): 6.0
- herbicidal effect rating, CYPIR (Cyperus iria [11]; Rate 0.2500 kg/ha): 6.0
- SAGPY herbicidal effect rating (Sagittaria pygmaea, L. [12]; Rate 0.0320 kg/ha): 0.0
- SAGPY herbicidal effect rating (Sagittaria pygmaea, L. [12]; Rate 0.0620 kg/ha): 0.0
- SAGPY herbicidal effect rating (Sagittaria pygmaea, L. [12]; Rate 0.1250 kg/ha): 0.0
- SAGPY herbicidal effect rating (Sagittaria pygmaea, L. [12]; Rate 0.2500 kg/ha): 0.0
